The source of these data is PMC7403980, “Anti-Inflammatory Effects of the Novel PIM Kinase Inhibitor KMU-470 in RAW 264.7 Cells through the TLR4-NF-κB-NLRP3 Pathway” (International Journal of Molecular Sciences, 2020).

The test system of one test is IKKα/β. Briefly: LPS-induced phosphorylation of IKKα/β in RAW 264.7 cells (Western blot). Type of test: cell-based, murine. The note with it: KMU-470 0.5 and 1 μM 30 min, LPS 50 ng/mL 6 h. On the procedure:
Figure 5 Effect of KMU-470 on LPS-induced phosphorylation of MAPKs/ IKKs/ NF-κB in RAW 264.7 cells. (A) Cells were pre-treated with 1μM of KMU-470 for 24 h and stimulated with LPS (50 ng/mL) at the indicated times. (C) Cells were pre-treated with 0.5 and 1μM of KMU-470 for 30 min prior to LPS treatment. Total proteins were isolated after 6 h exposure to LPS (50 ng/mL). The protein expression level of MAPKs, p-IKKα/β, and p-NF-κB were assessed using Western blot analyses. (B,D) The relative optical densities of MAPKs, p-IKKα/β, and p-NF-κB bands were analyzed by the Image-J program. *** p < 0.001.
RAW 264.7 cells were pre-treated with KMU-470 (0.5–1 μM/mL) for 24 h and stimulated with LPS (50 ng/mL) for 6 h. After stimulation, total cells were harvested, washed with PBS buffer, and then the total protein was extracted with a RIPA buffer (0.1 mM sodium orthovanadate, 137 mM NaCl, 15 mM EGTA, 0.1% Triton X-100, 25 mM MOPS, 15 mM MgCl2, 100 μM phenylmethylsulfonyl fluoride, and 20 μM leupeptin, adjusted to pH 7.2). […] Immunoreactive proteins were detected using the ELC Western blot detection system kit (Millipore). Signal intensity was measured using the Chemi Image documentation system (Fusion Fx7, VILBER LOUTMAT). Protein expression levels were quantified using the Image J program.

A further test relates to TNF-α. Briefly: LPS-induced TNF-α mRNA in RAW 264.7 cells (real time PCR). Type of test: cell-based, murine. Conditions: KMU-470 30 min, LPS 50 ng/mL 6 h. On the procedure:
Figure 6 Inhibitory effect of KMU-470 on LPS-induced up-regulation of pro-inflammatory cytokines and activation of NLRP3 inflammasome in RAW 264.7 cells. (A–C) Cells were treated with KMU-470 for 30 min and stimulated with LPS 50 ng/mL for 6 h. The levels of IL-1β, TNF-α, and IL-6 were determined using real time PCR. *** p < 0.001, *p < 0.05. (D) Cells were pre-treated with 0.1, 0.5, and 1 μM of KMU-470 for 30 min and treated with LPS 50 ng/mL for 6 h, respectively. Whole cell lysates were isolated and used to measure the protein expression levels of pro-IL-1β and β-actin by Western blot analysis. (E) Cells were pre-treated with 0.1, 0.5, and 1 μM of KMU-470 for 30 min and treated with LPS 50 ng/mL for 6 h, respectively. Whole cell lysates were isolated and used to measure the protein expression levels of […], ASC, pro-caspase-1, pro-IL-1β, and β-actin by Western blot analysis.
Total RNA was isolated using TriZol reagent (Life Technologies; Gaithersburg, MD, USA) according to the manufacturer’s protocol. Total RNA absorbance was quantified by using Nanodrop 1000 (Thermo Fisher Scientific, Waltham, MA, USA). […] Real time quantitative PCR was performed by using the SYBR green premix (Roche Diagnostics, Mannheim, Germany) on the LightCycler 480 PCR (system Roche Diagnostics, Mannheim, Germany). […]

Each structure is given as a SMILES string.

`CN(C)CCNc1cncc(-c2ccc3c(c2)/C(=C/c2cnc[nH]2)C(=O)N3)n1` [KMU-470, (Z)-3-((1H-Imidazol-5-yl)methylene)-5-(6-((2-(dimethylamino)ethyl)amino)pyrazin-2-yl)indolin-2-one]: the “LPS-induced phosphorylation of IKKα/β” value with IKKα/β is reported as “significantly reduced”. Moreover, the “LPS-induced up-regulation of TNF-α (mRNA)” value with TNF-α is “significantly decreased”.
